Experimental data published in patent US12052991B2, “Substituted pyridinyloxybenzenes and salts thereof and use thereof as herbicidal agents” (Bayer Aktiengesellschaft, priority 2018, dated 2024).

How the values were obtained:
Assay type in all cases: in vivo
[1] = test system: Abutilon theophrasti (ABUTH); assay: Herbicidal post-emergence action (Table B5); settings: rated visually after about 3 weeks, 100% = plants have died, 0% = like control plants
Outline: (§1)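 Activity was scored visually against untreated plants roughly 3 weeks after treatment, 0% meaning like control and 100% plant death. Application was post-emergence onto green parts at the one-leaf stage, as aqueous suspension/emulsion with 0.5% additive, 600 l/ha, delivering 1280 or 320 g/ha to greenhouse plants in sandy loam.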

Poa annua (POAAN) [2] = assay: Herbicidal post-emergence action (Table B3); settings: rated visually after about 3 weeks, 100% = plants have died, 0% = like control plants
Outline: as §1

[3] = test system: Amaranthus retroflexus (AMARE); assay: Herbicidal pre-emergence action, test C (Table C6); settings: visual scoring after about 3 weeks, 100% = plants have died, 0% = like control plants
Outline: (§2)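 Visual percentage damage relative to untreated pots (0% = like control, 100% = dead) was rated roughly 3 weeks after pre-emergence treatment in the greenhouse. Sandy loam pots were sown with weed seeds and covered with soil. The surface was sprayed with WP or EC formulations plus 0.5% additive at 600 L/ha, delivering 1280 or 320 g/ha.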

[4] = test system: Alopecurus myosuroides (ALOMY); assay: Herbicidal pre-emergence action, test C (Table C9); settings: visual scoring after about 3 weeks, 100% = plants have died, 0% = like control plants
Outline: as §2

[5] = test system: Digitaria sanguinalis (DIGSA); assay: Herbicidal pre-emergence action, test C (Table C10); settings: visual scoring after about 3 weeks, 100% = plants have died, 0% = like control plants
Outline: as §2

Bassia scoparia (KCHSC) [6] = assay: Herbicidal pre-emergence action, test C (Table C11); settings: dosage 1280 g/ha, visual scoring vs untreated controls
Outline: as §2

[7] = test system: Abutilon theophrasti (ABUTH); assay: Herbicidal pre-emergence action, test C (Table C5); settings: dosage 1280 g/ha; visual scoring after about 3 weeks; 100% = plants have died, 0% = like control plants
Outline: as §2

[8] = test system: harmful plants ABUTH, AMARE, ECHCG, LOLRI, MATIN, POAAN, SETVI, STEME, ALOMY, DIGSA, KCHSC and VERPE; assay: Herbicidal pre-emergence action (test C), summary of Tables C1-C12; settings: application rate of 1280 or 320 g of active ingredient per hectare; summary in words
Outline: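 Visual % damage versus untreated plants (0% = like control, 100% = died) was scored after about 3 weeks in the greenhouse. Before emergence, seeds sown in sandy loam got a soil-surface spray of compound as WP or EC plus 0.5% additive, using 600 L/ha water at rates of 1280 or 320 g/ha.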

[9] = test system: Digitaria sanguinalis (DIGSA); assay: Herbicidal post-emergence action (Table B10); settings: visual rating about 3 weeks after treatment, 100% = plants have died, 0% = like control plants
Outline: as §1

Veronica persica (VERPE) [10] = assay: Herbicidal post-emergence action (Table B12); settings: visual rating about 3 weeks after treatment, 100% = plants have died, 0% = like control plants
Outline: as §1

[11] = test system: Matricaria inodora (MATIN); assay: Herbicidal post-emergence action (Table B7); settings: rated visually after about 3 weeks, 100% = plants have died, 0% = like control plants
Method: Seeds of mono- and dicotyledonous weed plants were placed in plastic pots in sandy loam soil (doubly sown with in each case one species of mono- or dicotyledonous weed plants per pot), covered with soil and cultivated in a greenhouse under controlled growth conditions. 2 to 3 weeks after sowing, the test plants were treated at the one-leaf stage. The compounds of the invention, formulated in the form of wettable powders (WP) or as emulsion concentrates (EC), were applied onto the green parts of the plants as aqueous suspension or emulsion with addition of 0.5% additive at a water application rate of 600 liters per hectare (converted). After the test plants had been kept in the greenhouse under optimum growth conditions for about 3 weeks, the activity of the preparations was rated visually in comparison to untreated controls. For example, 100% activity=the plants have died, 0% activity=like control plants. Tables B1 to B12 below show the effects of selected compounds of the general formula (I) according to Table 1 on various harmful plants and an application rate corresponding to 1280 or 320 g/ha, which were obtained by the experimental procedure mentioned above.

Poa annua (POAAN) [12] = assay: Herbicidal pre-emergence action, test C (Table C3); settings: visual scoring after about 3 weeks, 100% = plants have died, 0% = like control plants
Outline: as §2

[13] = test system: Matricaria inodora (MATIN); assay: Herbicidal pre-emergence action, test C (Table C7); settings: visual scoring after about 3 weeks, 100% = plants have died, 0% = like control plants
Outline: as §2

Stellaria media (STEME) [14] = assay: Herbicidal post-emergence action (Table B8); settings: visual rating about 3 weeks after treatment, 100% = plants have died, 0% = like control plants
Outline: as §1

Veronica persica (VERPE) [15] = assay: Herbicidal pre-emergence action, test C (Table C12); settings: visual scoring vs untreated controls
Outline: as §2

Setaria viridis (SETVI) [16] = assay: Herbicidal pre-emergence action, test C (Table C4); settings: visual scoring after about 3 weeks, 100% = plants have died, 0% = like control plants
Outline: as §2

Stellaria media (STEME) [17] = assay: Herbicidal pre-emergence action, test C (Table C8); settings: visual scoring after about 3 weeks, 100% = plants have died, 0% = like control plants
Outline: as §2

[18] = test system: harmful plants ABUTH, AMARE, ECHCG, LOLRI, MATIN, POAAN, SETVI, STEME, ALOMY, DIGSA, KCHSC and VERPE; assay: Herbicidal post-emergence action, summary of Tables B1-B12; settings: application rate of 1280 or 320 g of active ingredient per hectare; summary in words
Outline: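 Activity scored by eye roughly 3 weeks post-treatment against untreated plants, from 0% (no effect) to 100% (plants dead). Application rates were 1280 or 320 g/ha, as aqueous WP/EC spray plus 0.5% additive at 600 L/ha, onto one-leaf-stage weeds grown 2–3 weeks in sandy loam.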

[19] = test system: Alopecurus myosuroides (ALOMY); assay: Herbicidal post-emergence action (Table B9); settings: rated visually after about 3 weeks, 100% = plants have died, 0% = like control plants
Outline: as §1

[20] = test system: Amaranthus retroflexus (AMARE); assay: Herbicidal post-emergence action (Table B6); settings: visual rating about 3 weeks after treatment, 100% = plants have died, 0% = like control plants
Outline: as §1

Bassia scoparia (KCHSC) [21] = assay: Herbicidal post-emergence action (Table B11); settings: visual rating about 3 weeks after treatment, 100% = plants have died, 0% = like control plants
Outline: as §1

[22] = test system: Echinochloa crus-galli (ECHCG); assay: Herbicidal pre-emergence action, test C (Table C1); settings: dosage 1280 g/ha; visual scoring after about 3 weeks; 100% = plants have died, 0% = like control plants
Outline: as §2

[23] = test system: Echinochloa crus-galli (ECHCG); assay: Herbicidal post-emergence action (Table B1); settings: rated visually after about 3 weeks, 100% = plants have died, 0% = like control plants
Outline: as §1

Lolium rigidum (LOLRI) = assay: Herbicidal pre-emergence action, test C (Table C2); settings: visual scoring after about 3 weeks, 100% = plants have died, 0% = like control plants
Outline: as §2

Setaria viridis (SETVI) [24] = assay: Herbicidal post-emergence action (Table B4); settings: 1280 g/ha; rated visually after about 3 weeks; 100% = plants have died, 0% = like control plants
Outline: as §1

SMILES	Post-emergence action against Abutilon theophrasti (ABUTH) ([1]; 320 g/ha)	Post-emergence action against Abutilon theophrasti (ABUTH) ([1]; 1280 g/ha)	Post-emergence action against Poa annua (POAAN) (Poa annua (POAAN) [2]; 320 g/ha)	Post-emergence action against Poa annua (POAAN) (Poa annua (POAAN) [2]; 1280 g/ha)	Pre-emergence action against Amaranthus retroflexus (AMARE) ([3]; dosage 320 g/ha)	Pre-emergence action against Amaranthus retroflexus (AMARE) ([3]; dosage 1280 g/ha)	Pre-emergence action against Alopecurus myosuroides (ALOMY) ([4]; dosage 1280 g/ha)	Pre-emergence action against Digitaria sanguinalis (DIGSA) ([5]; dosage 1280 g/ha)	herbicidal activity against the harmful plants of Tables C1-C12 in pre-emergence treatment [8]	Post-emergence action against Digitaria sanguinalis (DIGSA) ([9]; dosage 1280 g/ha)	Post-emergence action against Matricaria inodora (MATIN) ([11]; 1280 g/ha)	Post-emergence action against Stellaria media (STEME) (Stellaria media (STEME) [14]; dosage 1280 g/ha)	Pre-emergence action against Veronica persica (VERPE) (Veronica persica (VERPE) [15]; dosage 1280 g/ha)	Pre-emergence action against Setaria viridis (SETVI) (Setaria viridis (SETVI) [16]; dosage 320 g/ha)	Pre-emergence action against Setaria viridis (SETVI) (Setaria viridis (SETVI) [16]; dosage 1280 g/ha)	Pre-emergence action against Stellaria media (STEME) (Stellaria media (STEME) [17]; dosage 320 g/ha)	Pre-emergence action against Stellaria media (STEME) (Stellaria media (STEME) [17]; dosage 1280 g/ha)	herbicidal activity against the harmful plants of Tables B1-B12 in post-emergence treatment [18]	Post-emergence action against Alopecurus myosuroides (ALOMY) ([19]; 1280 g/ha)	Post-emergence action against Amaranthus retroflexus (AMARE) ([20]; dosage 320 g/ha)	also measured
Cc1cc(F)c(-c2cc(C(F)F)no2)c(Oc2ncc(Cl)cc2F)c1 [Example 1-89]	100%	100%	100%	100%	100%	100%	100%	100%	very good herbicidal activity	100%	100%	100%	90%	100%	100%	90%	90%	very good herbicidal activity	100%	100%	Pre-emergence action against Digitaria sanguinalis (DIGSA) ([5]; dosage 320 g/ha): 90%; Pre-emergence action against Bassia scoparia (KCHSC) (Bassia scoparia (KCHSC) [6]): 90%; Pre-emergence action against Abutilon theophrasti (ABUTH) [7]: 90%; Post-emergence action against Veronica persica (VERPE) (Veronica persica (VERPE) [10]; dosage 320 g/ha): 100%; Post-emergence action against Veronica persica (VERPE) (Veronica persica (VERPE) [10]; dosage 1280 g/ha): 100%; Post-emergence action against Matricaria inodora (MATIN) ([11]; 320 g/ha): 100%; Pre-emergence action against Poa annua (POAAN) (Poa annua (POAAN) [12]; dosage 320 g/ha): 90%; Pre-emergence action against Poa annua (POAAN) (Poa annua (POAAN) [12]; dosage 1280 g/ha): 100%; Pre-emergence action against Matricaria inodora (MATIN) ([13]; dosage 320 g/ha): 90%; Pre-emergence action against Matricaria inodora (MATIN) ([13]; dosage 1280 g/ha): 90%; Post-emergence action against Stellaria media (STEME) (Stellaria media (STEME) [14]; dosage 320 g/ha): 100%; Post-emergence action against Alopecurus myosuroides (ALOMY) ([19]; 320 g/ha): 100%; Post-emergence action against Amaranthus retroflexus (AMARE) ([20]; dosage 1280 g/ha): 100%; Post-emergence action against Bassia scoparia (KCHSC) (Bassia scoparia (KCHSC) [21]; dosage 320 g/ha): 90%; Post-emergence action against Bassia scoparia (KCHSC) (Bassia scoparia (KCHSC) [21]; dosage 1280 g/ha): 100%
FC(F)c1cc(-c2c(Br)cccc2Oc2ccc(Cl)cn2)on1 [Example 1-53]	100%	100%	100%	100%	100%	100%	100%	100%	very good herbicidal activity	100%	100%	90%	100%	100%	100%	100%	100%	very good herbicidal activity	100%	100%	Pre-emergence action against Echinochloa crus-galli (ECHCG) [22]: 90%; Pre-emergence action against Alopecurus myosuroides (ALOMY) ([4]; dosage 320 g/ha): 100%; Post-emergence action against Echinochloa crus-galli (ECHCG) ([23]; 320 g/ha): 100%; Post-emergence action against Echinochloa crus-galli (ECHCG) ([23]; 1280 g/ha): 100%; Post-emergence action against Digitaria sanguinalis (DIGSA) ([9]; dosage 320 g/ha): 100%; Pre-emergence action against Lolium rigidum (LOLRI) (Lolium rigidum (LOLRI); dosage 320 g/ha): 90%; Pre-emergence action against Lolium rigidum (LOLRI) (Lolium rigidum (LOLRI); dosage 1280 g/ha): 100%; Pre-emergence action against Poa annua (POAAN) (Poa annua (POAAN) [12]; dosage 320 g/ha): 100%; Pre-emergence action against Poa annua (POAAN) (Poa annua (POAAN) [12]; dosage 1280 g/ha): 100%; Pre-emergence action against Matricaria inodora (MATIN) ([13]; dosage 320 g/ha): 100%; Pre-emergence action against Matricaria inodora (MATIN) ([13]; dosage 1280 g/ha): 100%; Pre-emergence action against Veronica persica (VERPE) (Veronica persica (VERPE) [15]; dosage 320 g/ha): 100%; Post-emergence action against Setaria viridis (SETVI) (Setaria viridis (SETVI) [24]): 100%; Post-emergence action against Amaranthus retroflexus (AMARE) ([20]; dosage 1280 g/ha): 100%; Post-emergence action against Bassia scoparia (KCHSC) (Bassia scoparia (KCHSC) [21]; dosage 320 g/ha): 90%; Post-emergence action against Bassia scoparia (KCHSC) (Bassia scoparia (KCHSC) [21]; dosage 1280 g/ha): 100%
CCc1cccc(Oc2ccc(Cl)cn2)c1-c1cc(C(F)F)no1 [Example 1-59]	100%	100%	100%	100%	100%	100%	100%	100%	very good herbicidal activity	100%	100%	100%	100%	100%	100%	100%	100%	very good herbicidal activity	100%	90%	Pre-emergence action against Echinochloa crus-galli (ECHCG) [22]: 90%; Pre-emergence action against Alopecurus myosuroides (ALOMY) ([4]; dosage 320 g/ha): 100%; Pre-emergence action against Digitaria sanguinalis (DIGSA) ([5]; dosage 320 g/ha): 100%; Pre-emergence action against Abutilon theophrasti (ABUTH) [7]: 90%; Post-emergence action against Digitaria sanguinalis (DIGSA) ([9]; dosage 320 g/ha): 100%; Pre-emergence action against Lolium rigidum (LOLRI) (Lolium rigidum (LOLRI); dosage 1280 g/ha): 100%; Post-emergence action against Veronica persica (VERPE) (Veronica persica (VERPE) [10]; dosage 320 g/ha): 100%; Post-emergence action against Veronica persica (VERPE) (Veronica persica (VERPE) [10]; dosage 1280 g/ha): 100%; Post-emergence action against Stellaria media (STEME) (Stellaria media (STEME) [14]; dosage 320 g/ha): 100%; Pre-emergence action against Veronica persica (VERPE) (Veronica persica (VERPE) [15]; dosage 320 g/ha): 100%; Post-emergence action against Alopecurus myosuroides (ALOMY) ([19]; 320 g/ha): 100%; Post-emergence action against Amaranthus retroflexus (AMARE) ([20]; dosage 1280 g/ha): 100%; Post-emergence action against Bassia scoparia (KCHSC) (Bassia scoparia (KCHSC) [21]; dosage 1280 g/ha): 90%
